According to publication PMC7155171, “Probing the Open Global Health Chemical Diversity Library for Multistage-Active Starting Points for Next-Generation Antimalarials” (ACS Infectious Diseases, 2020):
Where two headings read alike, the source gives them in different places.

Key:
[1] = system: P. falciparum Dd2 (PfLuc) line expressing firefly luciferase, asexual blood stage; experiment: microbe, parasite or virus in culture; type: cell-based, Plasmodium falciparum; conditions: Plasmodium falciparum
[2] = system: P. falciparum Dd2; experiment: SYBR green I asexual blood stage proliferation assay (96 h); type: cell-based, Plasmodium falciparum; conditions: Plasmodium falciparum, DD2, 11-pt dose response, 96hr
[3] = DD2, read-out: CDD P. falciparum Luciferase ABS 11-pt Reconfirmation Dose Response (48hr): IC50 (μM), 11-pt dose response, 48hr
[4] = DD2, 8-pt dose response, 96hr, read-out: CDD P. falciparum Luciferase ABS 8-pt Reconfirmation Dose Response (96hr): IC50
[5] = DD2, 8-pt dose response, 96hr, read-out: CDD P. falciparum Luciferase ABS 8-pt Reconfirmation Dose Response (96hr): Maximum inhibition (%)
[6] = DD2, 11-pt dose response, 48hr, read-out: CDD P. falciparum Luciferase ABS 11-pt Reconfirmation Dose Response (48hr): Maximum inhibition (%)
[7] = DD2, 11-pt dose response, 96hr, read-out: CDD P. falciparum Luciferase ABS 11-pt Reconfirmation Dose Response (96hr): IC50
[8] = DD2, 11-pt dose response, 96hr, read-out: CDD P. falciparum Luciferase ABS 11-pt Reconfirmation Dose Response (96hr): Maximum inhibition (%)
[9] = Sybr Green I, read-out: CDD P. falciparum Sybr Green I ABS 11-pt Reconfirmation Dose Response (96hr): IC50
[10] = Sybr Green I, read-out: CDD P. falciparum Sybr Green I ABS 11-pt Reconfirmation Dose Response (96hr): Maximum inhibition (%)
[11] = DD2, read-out: P. falciparum Luciferase ABS 11-pt Reconfirmation Dose Response (48hr): IC50, 11-pt dose response, 48hr
[12] = DD2, 8-pt dose response, 96hr, read-out: P. falciparum Luciferase ABS 8-pt Reconfirmation Dose Response (96hr): IC50
[13] = DD2, 11-pt dose response, 48hr, read-out: P. falciparum Luciferase ABS 11-pt Reconfirmation Dose Response (48hr): Maximum inhibition (%)
[14] = DD2, 11-pt dose response, 96hr, read-out: P. falciparum Luciferase ABS 11-pt Reconfirmation Dose Response (96hr): IC50
[15] = DD2, 11-pt dose response, 96hr, read-out: P. falciparum Luciferase ABS 11-pt Reconfirmation Dose Response (96hr): Maximum inhibition (%)
[16] = read-out: P. falciparum Sybr Green I ABS 11-pt Reconfirmation Dose Response (96hr): IC50
[17] = read-out: P. falciparum Sybr Green I ABS 11-pt Reconfirmation Dose Response (96hr): Maximum inhibition (%)
[18] = DD2, 8-pt dose response, 96hr, read-out: P. falciparum Luciferase ABS 8-pt Reconfirmation Dose Response (96hr): Maximum inhibition (%)

Structure (SMILES) | IC50 [1, 3] [µM] | IC50 [1, 4] [µM] | Emax [1, 5] [%] | Emax [1, 6] [%] | IC50 [1, 7] [µM] | Emax [1, 8] [%] | IC50 [2, 9] [µM] | Emax [2, 10] [%] | IC50 [1, 11] [µM] | IC50 [1, 12] [µM] | Emax [1, 13] [%] | IC50 [1, 14] [µM] | Emax [1, 15] [%] | IC50 [2, 16] [µM] | Emax [2, 17] [%] | Emax [1, 18] [%] | IC50 ([1]; 96 h incubation, Dd2 luciferase, read-out: 96 hour Pfluc IC50) [µM]
Cc1cccc(C)c1Nc1noc2c1CN(C(=O)c1cn(C)cn1)CC2 [DDD01056797] | 0.494 | 0.23 | 95.7 | 99.4 | 0.535 | 101 | 0.22 | 97.2 | – | – | – | – | – | – | – | – | –
Cc1cccc(C)c1Nc1noc2c1CN(C(=O)c1c[nH]nc1C)CC2 [DDD01056871] | 1.9 | 0.77 | – | 87.7 | 1.38 | 96.9 | 2.52 | – | – | – | – | – | – | – | – | – | –
Cc1ccc(CN(CCN(C)C)Cc2c(C)nc3sccn23)o1 [DDD01056924] | – | – | – | – | – | – | – | – | > 12.5 | 1.82 | 65.3 | 2.43 | 88.8 | > 4.16 | 52.1 | – | –
Cc1cccc(C)c1Nc1noc2c1CN(C(=O)c1ccn(C)n1)CC2 [DDD01057030] | 0.885 | 0.26 | 96.3 | 97.1 | 0.693 | 99.6 | 0.913 | 95.5 | – | – | – | – | – | – | – | – | –
CCCNc1cc(-c2c[nH]nc2C2CCN(C(=O)C3CCC3)C2)ccn1 (stereo not drawn) [DDD01057089] | 4.01 | 0.31 | 96.1 | 86.1 | 1.63 | 97.9 | 1.34 | 61.5 | – | – | – | – | – | – | – | – | –
NC1CCc2nc(-c3cccnc3)nc(Nc3ccc(F)cc3)c2C1 (stereo not drawn) [DDD01057099] | 3.56 | 0.24 | 96.1 | 98.4 | 0.99 | 100 | 1.31 | 100 | – | – | – | – | – | – | – | – | –
Fc1ccccc1Cn1c(C2CCNCC2)cc2cccnc21 [DDD01057236] | 3.02 | 0.41 | 92.4 | 64.7 | 1.41 | – | 7.03 | 70.6 | – | – | – | – | – | – | – | – | –
COc1ccccc1C1(NCc2c(C)nc3c(C)cccn23)CCCC1 [DDD01057239] | 4.35 | 0.71 | – | 60.6 | 1.55 | 92 | > 1.39 | 68.9 | – | – | – | – | – | – | – | – | –
CC(C)Nc1cc(-c2c[nH]nc2C2CCN(C(=O)C3CC3)C2)ccn1 (stereo not drawn) [DDD01057305] | 5.35 | 0.29 | 95.7 | – | 1.73 | 98.4 | 8.07 | 76.9 | – | – | – | – | – | – | – | – | –
CC(C)CNc1cc(-c2c[nH]nc2C2CCN(C(=O)C3CC3)C2)ccn1 (stereo not drawn) [DDD01057306] | 5.71 | 0.28 | 95.6 | – | 1.93 | 96.6 | 5.02 | 50.9 | – | – | – | – | – | – | – | – | –
CC(C)Nc1cc(-c2c[nH]nc2C2CCN(C(=O)C3CCC3)C2)ccn1 (stereo not drawn) [DDD01057307] | 4.05 | 0.23 | 94.3 | – | 1.42 | 95.8 | 7.49 | 72 | – | – | – | – | – | – | – | – | –
COc1cc(C(=O)NCC2(N(C)C)CCN(C)CC2)c2ccccc2n1 [DDD01057375] | – | – | – | – | – | – | – | – | > 12.5 | < 0.00232 | 53 | – | 87.3 | > 1.39 | 63.6 | 88.6 | 0.00714
Fc1cccc(F)c1Cn1c(C2CCNCC2)cc2cccnc21 [DDD01057378] | 1.51 | 0.36 | 91.4 | 76 | 0.733 | 92.1 | 0.57 | 68.3 | – | – | – | – | – | – | – | – | –
Nc1cc(-c2c[nH]nc2C2CCCN2CCCc2ccccc2)ccn1 (stereo not drawn) [DDD01057437] | 3.06 | 0.59 | 96.2 | 63 | 0.669 | 100 | 2.26 | 96.1 | – | – | – | – | – | – | – | – | –
Cc1nc(-c2ccc(F)c(F)c2)cc(C2CCNCC2)n1 [DDD01058356] | > 12.5 | 0.84 | 88.2 | 44.3 | 2.02 | 86.7 | 2.1 | 68.9 | – | – | – | – | – | – | – | – | –
OC1(c2ccc(F)cc2)CCN(Cc2ccccc2N2CCCC2)CC1 [DDD01058479] | – | – | – | – | – | – | – | – | 3.24 | 1.38 | 76.5 | 1.95 | 94.3 | 5.91 | 82.4 | 88.9 | –
Clc1cccc(C[C@@H]2NCCC[C@@H]2Nc2ccccc2)c1 [DDD01058682] | – | – | – | – | – | – | – | – | 1.83 | 1.21 | 99.1 | 0.857 | 101 | 3.39 | 93.6 | 94.7 | –
Cc1nn(C)cc1C1=NS(=O)(=O)N(C)C(C(=O)Nc2ccc(Cl)cc2)=C1 [DDD01058696] | 1.23 | 0.34 | 96.1 | 100 | 0.511 | 101 | 0.705 | 98.7 | – | – | – | – | – | – | – | – | –
Cn1ccnc1CN(Cc1ccccn1)Cc1ccccc1Cl [DDD01058741] | 2.68 | 0.59 | 93.9 | 94.3 | 0.592 | 100 | 6.14 | 83.5 | – | – | – | – | – | – | – | – | –
Cc1ncc(CN(Cc2ccccn2)Cc2ccccc2Cl)n1C [DDD01058742] | 3.44 | 0.51 | 86.1 | 74 | 0.999 | 94.5 | 1.54 | 67.5 | – | – | – | – | – | – | – | – | –
Fc1ccc(F)c(CN2CCC(c3cc4ncccc4cn3)CC2)c1 [DDD01058752] | 1.07 | 0.41 | 96.2 | 94.1 | 0.979 | 98 | 0.859 | 90.5 | – | – | – | – | – | – | – | – | –
Fc1cccc(CN2CCC(c3cc4ncccc4cn3)CC2)c1F [DDD01058754] | 1.06 | 0.78 | 94.4 | 95.6 | 0.571 | 99.9 | 0.309 | 86.9 | – | – | – | – | – | – | – | – | –
